The nature of series [1]: Transepidermal water loss (TEWL) after topical application in volunteers. Conditions: 5% ingredient applied topically, ten volunteers. The series is classed as in vivo, human. The text has this:
The clinical efficiency of bio-compatible liquid crystals generated by cetearyl-olivate, sorbitan-olivate was clinically verified. Firstly, its skin biocompatibility was verified in a study on its effect on transepidermal water loss (TEWL) with respect to other lipidic compositions. TEWL is a convalidated method for assessing the skin permeability barrier function (Fluhr, 2006). Ten volunteers have applied topically identical concentrations (5%) of the following ingredients: cetearyl-olivate, sorbitan-olivate; cetearyl alcohol, cetearyl-glucoside and poliglyceril-3 methylglucose distearate. The results—see FIG. 4—have shown that the application of cetearyl-olivate, sorbitan-olivate reduced the increase of TEWL by 29% over control formulae (FIG. 2).

In series [2] the test system is Reconstructed Human Epidermis (RHE) keratinocytes. The series can be described thus: MTT assay of keratinocyte vitality on the RHE. The series is classed as cell-based. The following applies: MTT assay on RHE at 24 hour instant. The protocol:
Keratinocyte vitality was ascertained using the MTT assay: MTT salt (3-(4,5-dimetil-tiaol-2-il)-2,5 diphenyltetrazolium bromide) may be reduced through the mitochondrial enzyme succinate-dehydrogenase found in living cells. The reduction product, formazan crystals, may be quantified by optic density at […] and is proportional to the number of living cells. The MTT assay was performed on the RHE at the 24 hour instant.
For orientation: Tetrazolium dyes change colour on reduction, which living cells bring about.

The values that follow come from patent US8796217B2, “Use of transesterified olive oil in the cosmetic field” (Hallstar Italia S.R.L., priority 2008, dated 2014).

Take poliglyceril-3 methylglucose distearate: the “induced TEWL / water loss following application” value in series [1] is on record as “activate excessive water loss following application”.

For the molecule `Cn1c(=O)c2c(ncn2C)n(C)c1=O` [Control (pure caffeine), caffeine], the “Cell vitality (%)” value in series [2] came out at 100%.
